Read-outs that look alike come from different tables or passages of the source.
How the values were obtained:
[1] = target: ITCH (Homo sapiens, UniProt Q96J02); experiment: Blocking of ITCH self-ubiquitination, in vitro assay; type: biochemical; settings: FIG. 1
Excerpt: MPT0L056 of the invention was used to test the blocking of ITCH self-ubiquitination. […] [Reference for in vitro assay: Scialpi F, Malatesta M, Peschiaroli A, Rossi M, Melino G, and Bernassola F. Itch self-polyubiquitylation occurs through lysine-63 linkages. Biochem Pharmacol. 2008 Dec. 1; 76(11):1515-21. Reference for in vivo assay: Chang L, Kamata H, Solinas G, Luo J L, Maeda S, Venuprasad K, Liu Y C, and Karin M. The E3 ubiquitin ligase itch couples JNK activation to TNFalpha-induced cell death by inducing c-FLIP(L) turnover. Cell. 2006 Feb. 10; 124(3):601-131

[2] = system: HCT116 human colorectal adenocarcinoma; settings: for Logrank Significance: compared to Group 1
Description: MPT0L056 was used to evaluate for activity against the HCT116 human colorectal adenocarcinoma.
However, MPT0E028 was administered orally (p.o.) in 1.0% CMC and 0.5% Tween 80 and given dose at 25 mg/kg daily to end schedule.
Each animal was euthanized when the tumors reached the predetermined endpoint size of 1,000 mm^3. The time to endpoint (TTE) for each mouse was calculated by the following equation:
[formula] where TTE is expressed in days, endpoint volume is in mm^3, b is the intercept, and m is the slope of the line obtained by linear regression of a log-transformed tumor growth data set. The data set is comprised of the first observation that exceeded the study endpoint volume and the three consecutive observations that immediately preceded the attainment of the endpoint volume. The calculated TTE is usually less than the day on which an animal is euthanized for tumor size. […] An animal classified as having died from treatment-related (TR) causes or non-treatment-related metastasis (NTRm) causes was assigned a TTE value equal to the day of death. An animal classified as having died from non-treatment-related (NTR) causes was excluded from TTE calculations.
Treatment efficacy was determined from tumor growth delay (TGD), which is defined as the increase in the median TTE for a treatment group compared to the control group: TGD=T−C, expressed in days, or as a percentage of the median TTE of the control group:
[formula] where: • T=median TTE for a treatment group, • C=median TTE for control Group 1.
Treatment efficacy was also determined from the tumor volumes of animals remaining in the study on the last day, and from the number of regression responses. The MTV(n) is defined as the median tumor volume on D59 in the number of animals remaining, n, whose tumors have not attained the endpoint volume.
Treatment may cause a partial regression (PR) or a complete regression (CR) of the tumor in an animal. […] An animal with a CR at the termination of a study is additionally classified as a tumor-free survivor (TFS).
Animals were weighed daily for the first five days, then twice weekly until the completion of the study. The mice were examined frequently for overt signs of any adverse, drug-related side effects. Acceptable toxicity for the MTD of cancer drugs is defined as a group mean BW loss of 20% or less during the test, and not more than one TR death among ten animals. A death is classified as TR if there is evidence of treatment side effects from clinical signs and/or necropsy or from unknown causes during dosing period or within 10 days of the last dose. A death is classified as NTR if there is no evidence that the death was related to treatment side effects.
The logrank test was used to determine the statistical significance of the difference between the TTE values of two groups, except any NTR deaths. Statistical and graphical analyses were performed with Prism 3.03 (GraphPad) for Windows. The two-tailed statistical analyses were conducted at P=0.05. Kaplan-Meier plots show the percentage of animals remaining in the study versus time. The Kaplan-Meier plots use the same data set as the log rank test. The tumor growth curves show the group median tumor volume, on a log scale as a function of time.

[3] = system: IL-6 production in human rheumatoid arthritis fibroblast-like synoviocyte cells; experiment: IL-6 production in RAFLS cells (ELISA); type: cell-based; settings: RA-FLS, 24 h
Description: Cell culture. Human rheumatoid arthritis fibroblast-like synoviocytes (RAFLS) from Cell Application Inc. (San Diego, CA, USA) were grown in synoviocyte growth medium from the same supplier.
IL-6 Determination. RA-FLS (2.5×10^4) was treated with various concentrations of MPT0L056 for 24 h, then the medium was collected and assayed for IL-6 using commercial ELISA kit.

[4] = Group 1 vs 4: MPT0L056 100 mg/kg
[5] = Group 4: MPT0L056 100 mg/kg po qd to endpoint
[6] = Group 5: MPT0L056 50 mg/kg po qd to endpoint
[7] = Group 7: MPT0L056 100 mg/kg po qd + MPT0E028 25 mg/kg po qd to endpoint
[8] = Group 8: MPT0L056 50 mg/kg po qd + MPT0E028 25 mg/kg po qd to endpoint

ITCH, sequence (Q96J02 whole entry, species assumed): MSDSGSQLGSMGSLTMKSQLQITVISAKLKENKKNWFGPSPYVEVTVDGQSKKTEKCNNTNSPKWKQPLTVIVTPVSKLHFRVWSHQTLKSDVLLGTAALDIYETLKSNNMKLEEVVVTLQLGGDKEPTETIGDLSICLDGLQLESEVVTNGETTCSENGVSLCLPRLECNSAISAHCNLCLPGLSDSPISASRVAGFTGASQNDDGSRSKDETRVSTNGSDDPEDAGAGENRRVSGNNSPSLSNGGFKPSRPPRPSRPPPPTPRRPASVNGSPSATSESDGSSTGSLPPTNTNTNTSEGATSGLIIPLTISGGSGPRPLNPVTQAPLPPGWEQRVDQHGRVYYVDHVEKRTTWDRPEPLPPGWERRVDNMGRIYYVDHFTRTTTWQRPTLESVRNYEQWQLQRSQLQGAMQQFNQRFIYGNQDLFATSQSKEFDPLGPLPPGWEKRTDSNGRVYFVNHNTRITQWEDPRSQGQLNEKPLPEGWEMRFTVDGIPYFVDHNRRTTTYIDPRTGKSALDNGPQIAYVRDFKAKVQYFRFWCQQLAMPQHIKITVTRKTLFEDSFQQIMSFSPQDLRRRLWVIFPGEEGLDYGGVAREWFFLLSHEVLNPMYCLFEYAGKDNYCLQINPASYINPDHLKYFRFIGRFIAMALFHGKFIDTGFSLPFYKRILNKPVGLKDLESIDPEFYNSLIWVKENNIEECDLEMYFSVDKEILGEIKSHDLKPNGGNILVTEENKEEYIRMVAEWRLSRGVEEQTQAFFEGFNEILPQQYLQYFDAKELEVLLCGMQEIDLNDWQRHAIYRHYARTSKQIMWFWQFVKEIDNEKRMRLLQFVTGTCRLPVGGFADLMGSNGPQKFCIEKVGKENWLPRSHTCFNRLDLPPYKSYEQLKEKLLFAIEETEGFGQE

O=C(Nc1ccncc1)c1ccc(CNC2=C(Cl)C(=O)c3ccccc3C2=O)cc1 [MPT0L056]
blocking of ITCH self-ubiquitination (Lys-dependent) [1]: blocks ITCH self-ubiquitnation (Lys-dependent) efficiently | Hazard Ratio [2, 4]: 4.135 | Median survival [2, 4]: 48.55 | Median survival Ratio [2, 4]: 0.4876 | Hazard Ratio ([2]; Group 1 vs 5: 50 mg/kg): 1.959 | Median survival ([2]; Group 1 vs 5: 50 mg/kg): 29.95 | Median survival Ratio ([2]; Group 1 vs 5: 50 mg/kg): 0.7579 | Day of Max % BW Loss [2, 5]: 6 days | MTV (n) Day 59 [2, 5]: 160 mm^3 | Max % BW Loss [2, 5]: −2.3% | Median TTE [2, 5]: 48.5 days | No. of NTR [2, 5]: 0 | No. of TR [2, 5]: 0 | T-C [2, 5]: 25.8 days | antitumor activity (logrank analysis) [2, 5]: produced significant antitumor activity | % TGD ([2]; Group 4: MPT0L056 100 mg/kg po qd to endpoint, 100 mg/kg): 114% | Logrank Significance [2, 5]: ** (** = P < 0.01) | Day of Max % BW Loss [2, 6]: 5 days | MTV (n) Day 59 [2, 6]: 975 mm^3 | Max % BW Loss [2, 6]: −3.8% | Median TTE [2, 6]: 30.0 days | No. of LTTFS [2, 6]: 0 | No. of NTR [2, 6]: 2 | No. of TR [2, 6]: 0 | T-C [2, 6]: 7.3 days | antitumor activity (logrank analysis) [2, 6]: but not 50 mg/kg (P=0.2087), produced significant antitumor activity | % TGD ([2]; Group 5: MPT0L056 50 mg/kg po qd to endpoint, 50 mg/kg): 32% | % TGD [2, 7]: 50% | Day of Max % BW Loss [2, 7]: 5 days | Max % BW Loss [2, 7]: −8.4% | Median TTE [2, 7]: 34.0 days | No. of CR [2, 7]: 0 | No. of LTTFS [2, 7]: 0 | No. of NTR [2, 7]: 0 | No. of PR [2, 7]: 0 | No. of TR [2, 7]: 0 | T-C [2, 7]: 11.3 days | % TGD [2, 8]: 100% | Day of Max % BW Loss [2, 8]: 3 days | Max % BW Loss [2, 8]: −9.5% | Median TTE [2, 8]: 45.3 days | No. of LTTFS [2, 8]: 0 | T-C [2, 8]: 22.6 days | synergistic effect of antitumor activity (logrank analysis) [2, 8]: significant synergistic effect of antitumor activity | Logrank Significance [2, 8]: ** (** = P < 0.01) | IC50 [3]: 7.26 µM

From patent US11919858B2, “Aminonapthoquinone compounds and pharmaceutical composition for blocking ubiquitination-proteasome system in diseases” (Calgent Biotechnology Co., Ltd., priority 2015, dated 2024)
